Laboratory results taken from patent publication US20120101257A1, “PROCESSES FOR PREPARING AMINO-SUBSTITUTED GAMMA-LACTAMS” (UNIVERSITE DE MONTREAL, priority 2009, published 2012).
*1 amine or outer side, *2 acyl side, *3 side chain or, on linkers, in order; H or OH if unused. Where a SMILES comes first, the peptide text is derived from it. [ ]: non-standard residue; d: D form. The star is where a group is joined. X13 = C[C@@H](O)[C@H](C(=O)[*:2])N1C[C@H](N[*:1])CC1=O; X11 = N[C@@H]1CCN([C@H](Cc2ccc(O)cc2)C(=O)*)C1=O; d(aThr) = C[C@@H](O)[C@@H](N)C(=O)O

Columns and labels:
[1] = system: TF-1 cells; assay: [3H]thymidine incorporation, IL-1 induced TF-1 cell proliferation; type: cell-based, human
Experimental: Human TF-1 cells (5×10^4 cells/well) were cultured in complete RPMI medium (GIBCO RPMI Medium 1640, Invitrogen) supplemented with GM-CSF (Granulocyte Macrophage Colony Stimulating Factor, 2 ng/ml; BD Biosource). Cells were deprived of growth factors for 18 h before preincubation with lactam peptide (1 μM) followed by treatment with IL-1β (10 or 25 ng/mL). After 24 h incubation at 37° C., [^3H]thymidine (1 μCi/mL; Amersham) was added and the cells were incubated for another 24 h. Cells were harvested, washed two times with PBS (10 mM Na2HPO4, 2 mM KH2PO4, 137 mM NaCl, 2.7 mM KCl; pH 7.4) and lysed with a 0.1 N NaOH/0.1% Triton X-100 solution. Scintillation cocktail (Fisher Scientific, 8 mL/sample) was added to the lysate, and after 3 h, radioactivity was measured (Beckman Multi-Purpose Scintillation Coulter Counter LS6500). Results were analyzed by one- or two-way ANOVA factoring for concentration or treatments. Postanova comparisons among means were performed using the Tukey-Framer method. Statistical significance was set at p<0.05. Data are presented as mean±SEM.

[2] = lactam peptide 1 μM, IL-1β 10 or 25 ng/mL

## COC(=O)C[C@H]1COS(=O)(=O)N1C(=O)OCC1c2ccccc2-c2ccccc21 [(4S)-17, (4S)-Methyl-2-[3-(9-fluorenylmethoxycarbonyl)-2,2-dioxo-1,2,3-oxathiazolidin-4-yl]acetate]
other
  melting point: 138 to 140 °C

## CC(C)C[C@@H](NC(=O)[C@@H](CCC(=O)O)NC(=O)[C@H](NC(=O)[C@H](NC(=O)[C@@H](Cc1ccc(O)cc1)N1CC[C@@H](N)C1=O)[C@@H](C)O)C(C)C)C(=O)N[C@H](C)C(N)=O [Compound 54, (R)-Agl-D-Tyr-D-Thr-D-Val-D-Glu-D-Leu-D-Ala-NH2] (X11-[d(aThr)][dV][dE][dL][dA]-NH2)
[1]; [2]
  increase in efficacy compared to 101.10, inhibition of IL-1 induced TF-1 proliferation: 2.2 fold

## CC(C)C[C@@H](NC(=O)[C@@H](CCC(=O)O)NC(=O)[C@H](NC(=O)[C@@H]([C@@H](C)O)N1C[C@H](NC(=O)[C@H](N)CCCNC(=N)N)CC1=O)C(C)C)C(=O)N[C@H](C)C(N)=O [Compound 76, D-Arg-(R)-Bgl-D-Thr-D-Val-D-Glu-D-Leu-D-Ala-NH2] (H-[dR][X13][dV][dE][dL][dA]-NH2)
[1]; [2]
  increase in efficacy compared to 101.10, inhibition of IL-1 induced TF-1 proliferation: 1.7 fold

## CC(C)C[C@@H](NC(=O)[C@@H](CCC(=O)O)NC(=O)[C@@H](C(C)C)N1CC[C@@H](NC(=O)[C@@H](Cc2ccc(O)cc2)NC(=O)[C@H](N)CCCNC(=N)N)C1=O)C(=O)N[C@H](C)C(N)=O [Compound 56, D-Arg-D-Tyr-(R)-Agl-D-Val-D-Glu-D-Leu-D-Ala-NH2]
[1]; [2]
  inhibition of IL-1 induced TF-1 proliferation (in words): failed to block proliferation

## D-Arg-D-Tyr-D-Thr-(S)-Agl-D-Glu-D-Leu-D-Ala-NH2 [Compound 94]
[1]; IL-1 induced, [3H]thymidine incorporation as in Example 59
  percentage of proliferation of TF-1 cells pre-treated with peptide: 132%
